Results: patent publication US11780830B2, “Triazolone derivatives or salts thereof and pharmaceutical compositions comprising the same” (YUHAN CORPORATION, priority 2018, dated 2023)
Counter-ions that a name gives are not always drawn.

What was measured:
Type in all cases: biochemical
recombinant human VAP-1 = target: T1, recombinant human VAP-1 (Homo sapiens, UniProt Q16853); assay: Activity on recombinant human VAP-1, HRP-coupled Amplex Red hydrogen peroxide assay; settings: substrate 1 mM benzylamine; compound incubated with enzyme at 37° C. for 30 minutes; pH 7.4; read-out: Inhibitory Activity (IC50, nM) human VAP-1
T1 construct: purchased R&D systems
T1 sequence (Q16853 1-763): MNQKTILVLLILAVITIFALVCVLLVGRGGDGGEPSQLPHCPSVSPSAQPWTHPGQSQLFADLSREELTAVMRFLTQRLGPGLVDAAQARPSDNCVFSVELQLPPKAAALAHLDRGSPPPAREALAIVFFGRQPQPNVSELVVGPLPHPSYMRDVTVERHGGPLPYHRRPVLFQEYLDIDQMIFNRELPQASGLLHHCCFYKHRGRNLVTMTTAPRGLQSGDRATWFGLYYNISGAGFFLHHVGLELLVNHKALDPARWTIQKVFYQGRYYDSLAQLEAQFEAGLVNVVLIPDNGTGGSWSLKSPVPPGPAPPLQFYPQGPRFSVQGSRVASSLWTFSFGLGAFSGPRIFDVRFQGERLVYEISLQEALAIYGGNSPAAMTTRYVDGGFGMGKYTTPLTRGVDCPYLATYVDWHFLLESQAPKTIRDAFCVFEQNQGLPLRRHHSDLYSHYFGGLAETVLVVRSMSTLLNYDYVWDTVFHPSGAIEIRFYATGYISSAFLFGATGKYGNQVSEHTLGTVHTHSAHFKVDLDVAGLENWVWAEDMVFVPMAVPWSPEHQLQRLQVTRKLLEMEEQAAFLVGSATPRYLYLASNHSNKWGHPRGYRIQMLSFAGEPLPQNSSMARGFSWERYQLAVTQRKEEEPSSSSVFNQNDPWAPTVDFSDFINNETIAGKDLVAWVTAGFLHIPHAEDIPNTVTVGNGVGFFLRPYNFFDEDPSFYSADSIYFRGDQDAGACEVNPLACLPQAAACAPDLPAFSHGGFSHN
Method in brief: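 Fluorescence of resorufin formed from H2O2 (ex 544 nm, em 590 nm) was tracked for 1-2 h after adding 1 mM benzylamine, 200 uM Amplex Red and 1 U/mL HRP to enzyme pretreated with compound for 30 min at 37 °C. IC50 values derive from four-variable logistic fits.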

[1] = target: T2, recombinant human MAO-A (monoamine oxidase-A) (Homo sapiens, UniProt P21397); assay: Activity on recombinant human MAO-A, method similar to the VAP-1 assay; settings: substrate 0.5 mM tyramine; read-out: Inhibitory Activity (IC50, nM) MAO-A
T2 construct: purchased Sigma-Aldrich
T2 sequence (P21397 1-527): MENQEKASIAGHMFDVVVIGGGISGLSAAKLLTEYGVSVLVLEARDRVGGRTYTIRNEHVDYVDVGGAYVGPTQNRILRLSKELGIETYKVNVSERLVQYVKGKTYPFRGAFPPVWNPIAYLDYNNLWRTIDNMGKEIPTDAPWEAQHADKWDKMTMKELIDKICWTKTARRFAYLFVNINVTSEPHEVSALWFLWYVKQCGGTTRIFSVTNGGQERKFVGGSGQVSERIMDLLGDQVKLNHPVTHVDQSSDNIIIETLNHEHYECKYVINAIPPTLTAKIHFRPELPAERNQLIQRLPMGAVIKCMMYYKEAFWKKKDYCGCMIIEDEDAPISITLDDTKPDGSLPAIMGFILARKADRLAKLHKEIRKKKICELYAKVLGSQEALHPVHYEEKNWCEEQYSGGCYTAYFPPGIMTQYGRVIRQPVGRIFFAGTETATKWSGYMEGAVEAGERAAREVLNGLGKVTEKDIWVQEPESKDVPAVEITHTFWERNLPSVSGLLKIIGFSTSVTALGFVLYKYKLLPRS
Method in brief: (§1)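 Fluorescence (544/590 nm) of resorufin formed from Amplex Red by HRP and enzyme-generated H2O2 was followed over 1-2 h. Substrates were 0.5 mM tyramine for MAO-A and 1 mM benzylamine for MAO-B; compounds were preincubated with enzyme for 30 min at 37° C. IC50 came from four-parameter logistic fitting of signal-rate inhibition.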

[2] = target: T3, recombinant human MAO-B (monoamine oxidase-B) (Homo sapiens, UniProt P27338); assay: Activity on recombinant human MAO-B, method similar to the VAP-1 assay; settings: substrate 1 mM benzylamine; read-out: Inhibitory Activity (IC50, nM) MAO-B
T3 construct: purchased Sigma-Aldrich
T3 sequence (P27338 1-520): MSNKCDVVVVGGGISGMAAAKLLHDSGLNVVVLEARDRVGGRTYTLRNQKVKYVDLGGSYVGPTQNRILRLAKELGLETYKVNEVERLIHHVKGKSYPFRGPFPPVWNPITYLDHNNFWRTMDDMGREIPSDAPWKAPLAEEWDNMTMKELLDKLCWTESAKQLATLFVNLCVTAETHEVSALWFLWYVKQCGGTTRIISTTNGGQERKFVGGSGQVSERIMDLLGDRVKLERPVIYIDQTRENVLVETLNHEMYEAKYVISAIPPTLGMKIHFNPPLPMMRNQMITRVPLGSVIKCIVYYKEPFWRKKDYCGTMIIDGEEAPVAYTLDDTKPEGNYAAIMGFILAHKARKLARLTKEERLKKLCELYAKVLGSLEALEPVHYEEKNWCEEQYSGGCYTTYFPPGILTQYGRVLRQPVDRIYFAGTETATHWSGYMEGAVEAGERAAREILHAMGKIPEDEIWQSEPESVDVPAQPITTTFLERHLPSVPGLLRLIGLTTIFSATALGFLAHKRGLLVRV
Method in brief: as §1

[3] = target: T4, recombinant human DAO (diamine oxidase) (Homo sapiens, UniProt P19801); assay: Activity on recombinant human DAO, method similar to the VAP-1 assay; settings: substrate 1 mM putrescine; read-out: Inhibitory Activity (IC50, nM) DAO
T4 construct: purchased R&D systems
T4 sequence (P19801 20-751): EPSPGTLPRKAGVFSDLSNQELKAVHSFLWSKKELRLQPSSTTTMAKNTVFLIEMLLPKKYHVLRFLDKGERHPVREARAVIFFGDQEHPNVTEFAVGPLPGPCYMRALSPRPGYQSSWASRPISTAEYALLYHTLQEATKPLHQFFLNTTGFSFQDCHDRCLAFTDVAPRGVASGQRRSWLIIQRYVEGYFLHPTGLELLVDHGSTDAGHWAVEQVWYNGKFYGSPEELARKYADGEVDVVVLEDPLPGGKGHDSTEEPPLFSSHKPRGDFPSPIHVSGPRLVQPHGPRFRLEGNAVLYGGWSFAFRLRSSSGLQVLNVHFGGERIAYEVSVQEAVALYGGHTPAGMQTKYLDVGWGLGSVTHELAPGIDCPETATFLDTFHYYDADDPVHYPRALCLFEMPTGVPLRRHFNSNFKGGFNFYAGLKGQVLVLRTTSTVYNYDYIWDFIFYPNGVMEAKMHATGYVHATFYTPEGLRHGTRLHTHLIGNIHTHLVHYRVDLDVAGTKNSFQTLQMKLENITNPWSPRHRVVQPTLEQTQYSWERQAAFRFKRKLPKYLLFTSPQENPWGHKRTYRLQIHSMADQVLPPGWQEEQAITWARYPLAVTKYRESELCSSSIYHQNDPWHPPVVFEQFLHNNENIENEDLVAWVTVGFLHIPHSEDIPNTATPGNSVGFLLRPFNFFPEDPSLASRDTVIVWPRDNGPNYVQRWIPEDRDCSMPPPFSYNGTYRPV
Method in brief: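 Inhibition of recombinant human diamine oxidase (DAO, R&D systems) was assessed by the same approach as the VAP-1 assay, using 1 mM putrescine as substrate. Hydrogen peroxide formed was detected through an HRP-coupled Amplex Red reaction yielding fluorescent resorufin, read at 544 nm excitation and 590 nm emission. IC50 values came from four-parameter logistic fitting in GraphPad Prism.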

Structure (SMILES)	IC50 (recombinant human VAP-1) [nM]	IC50 [1] [nM]	IC50 [2] [nM]	IC50 [3] [nM]
CNS(=O)(=O)c1cccc(-c2ccc(Cn3cnn(C/C(=C/F)CN)c3=O)s2)c1 [Example 8, 3-[5-(1-[(2E)-2-(aminomethyl)-3-fluoroprop-2-en-1-yl]-5-oxo-1,5-dihydro-4H-1,2,4-triazol-4-ylmethyl)thiophen-2-yl]-N-methylbenzenesulfonamide hydrochloride]	1.2	> 100000	210	520
CC(=O)N1CCN(c2ccc(-c3ccc(Cn4cnn(C/C(=C/F)CN)c4=O)s3)cc2)CC1 [Example 24, 4-(5-[4-(4-acetylpiperazin-1-yl)phenyl]thiophen-2-ylmethyl)-2-[(2E)-2-(aminomethyl)-3-fluoroprop-2-en-1-yl]-2,4-dihydro-3H-1,2,4-triazol-3-one hydrochloride]	1.4	21000	> 10000	670
CS(=O)(=O)Nc1ccc(-c2ccc(Cn3cnn(C/C(=C/F)CN)c3=O)s2)cc1 [Example 7, N-4-[5-(1-[(2E)-2-(aminomethyl)-3-fluoroprop-2-en-1-yl]-5-oxo-1,5-dihydro-4H-1,2,4-triazol-4-ylmethyl)thiophen-2-yl]phenylmethansulfonamide hydrochloride]	0.4	35000	11000	1000
CN1C(=O)COc2cc(-c3ccc(Cn4cnn(C/C(=C/F)CN)c4=O)s3)ccc21 [Example 86, 7-[5-[[1-[(E)-2-(aminomethyl)-3-fluoro-allyl]-5-oxo-1,2,4-triazol-4-yl]methyl]-2-thienyl]-4-methyl-1,4-benzoxazin-3-one hydrochloride]	0.2	> 100000	2500	380
NC/C(=C\F)Cn1ncn(Cc2ccc(-c3ccc(F)c(C(F)(F)F)c3)s2)c1=O [Example 15, 2-[(2E)-2-(aminomethyl)-3-fluoroprop-2-en-1-yl]-4-(5-[4-fluoro-3-(trifluoromethyl)phenyl]thiophen-2-ylmethyl)-2,4-dihydro-3H-1,2,4-triazol-3-one hydrochloride]	0.9	> 100000	5	670

More lines, now with the values ahead:

IC50 (recombinant human VAP-1) [nM]	IC50 [1] [nM]	IC50 [2] [nM]	IC50 [3] [nM]	Structure (SMILES)
1.1	140000	58	560	NC/C(=C\F)Cn1ncn(Cc2ccc(/C=C/c3cccc(F)c3)s2)c1=O [Example 118, 2-[(2E)-2-(aminomethyl)-3-fluoroprop-2-en-1-yl]-4-(5-[(E)-2-(3-fluorophenyl)ethenyl]thiophen-2-ylmethyl)-2,4-dihydro-3H-1,2,4-triazol-3-one hydrochloride]
3.8	> 100000	> 100000	1800	NC/C(=C\F)Cn1ncn(Cc2ccc(-c3cnn(C4CCNCC4)c3)s2)c1=O [Example 190, 2-[(2E)-2-(aminomethyl)-3-fluoroprop-2-en-1-yl]-4-({5-[1-(piperidin-4-yl)-1H-pyrazol-4-yl]thiophen-2-yl}methyl)-2,4-dihydro-3H-1,2,4-triazol-3-one]
3.4	57000	250	1000	COc1ccc(C#Cc2ccc(Cn3cnn(C/C(=C/F)CN)c3=O)s2)cc1 [Example 126, 2-[(2E)-2-(aminomethyl)-3-fluoroprop-2-en-1-yl]-4-(5-[(4-methoxyphenyl)ethynyl]thiophen-2-ylmethyl)-2,4-dihydro-3H-1,2,4-triazol-3-one hydrochloride]
1.2	> 100000	26000	780	CS(=O)(=O)c1ccc(-c2ccc3sc(Cn4cnn(C/C(=C/F)CN)c4=O)cc3c2)cc1 [Example 208, 2-[(2E)-2-(aminomethyl)-3-fluoroprop-2-en-1-yl]-4-({5-[4-(methylsulfonyl)phenyl]-1-benzothiophen-2-yl}methyl)-2,4-dihydro-3H-1,2,4-triazol-3-one]
1.8	38400	420	8500	NC/C(=C\F)Cn1ncn(Cc2ccc(-c3ccc4c(c3)NCCO4)s2)c1=O [Example 105, 2-[(E)-2-(aminomethyl)-3-fluoro-allyl]-4-[[5-(3,4-dihydro-2H-1,4-benzoxazin-6-yl)-2-thienyl]methyl]-1,2,4-triazol-3-one]
0.3	> 100000	2400	897	Cc1c(-c2ccc(Cn3cnn(C/C(=C/F)CN)c3=O)s2)ccc2c1NC(=O)CC2 [Example 88, 7-[5-[[1-[(E)-2-(aminomethyl)-3-fluoro-allyl]-5-oxo-1,2,4-triazol-4-yl]methyl]-2-thienyl]-8-methyl-3,4-dihydro-1H-quinolin-2-one]
0.5	> 100000	38000	120	CN1C(=O)CCc2cc(-c3ccc(CCn4cnn(C/C(=C/F)CN)c4=O)s3)ccc21 [Example 219, 6-[5-(2-{1-[(2E)-2-(aminomethyl)-3-fluoroprop-2-en-1-yl]-5-oxo-1,5-dihydro-4H-1,2,4-triazol-4-yl}ethyl)thiophen-2-yl]-1-methyl-3,4-dihydroquinolin-2(1H)-one]
